Measured values as given in PMC11024012, “Design, synthesis, and biochemical and computational screening of novel oxindole derivatives as inhibitors of Aurora A kinase and SARS-CoV-2 spike/host ACE2 interaction” (Medicinal Chemistry Research, 2024).
Values joined by “and” are separate entries in the source; they are usually repeats but may differ in a detail not shown here. Equal entries are not always repeated. Where two headings read alike, the source gives them in different places.

Tests used:
[1] = molecular target: T1, SARS-CoV-2 Spike RBD/ACE2 (Homo sapiens, UniProt Q9BYF1); test: biochemical; assay type: binding, SARS-CoV-2 (Wuhan / USA-WA/2020 wild-type) spike; human ACE2; conditions: for inhibition at 32 µM: read-out: Spike RBD/ACE2 Percent block at 32 μM
T1 construct: 5 nM HIS-tagged SARS-CoV-2 Spike-RBDs; purchased Sino Biological
T1 sequence (Q9BYF1 18-740): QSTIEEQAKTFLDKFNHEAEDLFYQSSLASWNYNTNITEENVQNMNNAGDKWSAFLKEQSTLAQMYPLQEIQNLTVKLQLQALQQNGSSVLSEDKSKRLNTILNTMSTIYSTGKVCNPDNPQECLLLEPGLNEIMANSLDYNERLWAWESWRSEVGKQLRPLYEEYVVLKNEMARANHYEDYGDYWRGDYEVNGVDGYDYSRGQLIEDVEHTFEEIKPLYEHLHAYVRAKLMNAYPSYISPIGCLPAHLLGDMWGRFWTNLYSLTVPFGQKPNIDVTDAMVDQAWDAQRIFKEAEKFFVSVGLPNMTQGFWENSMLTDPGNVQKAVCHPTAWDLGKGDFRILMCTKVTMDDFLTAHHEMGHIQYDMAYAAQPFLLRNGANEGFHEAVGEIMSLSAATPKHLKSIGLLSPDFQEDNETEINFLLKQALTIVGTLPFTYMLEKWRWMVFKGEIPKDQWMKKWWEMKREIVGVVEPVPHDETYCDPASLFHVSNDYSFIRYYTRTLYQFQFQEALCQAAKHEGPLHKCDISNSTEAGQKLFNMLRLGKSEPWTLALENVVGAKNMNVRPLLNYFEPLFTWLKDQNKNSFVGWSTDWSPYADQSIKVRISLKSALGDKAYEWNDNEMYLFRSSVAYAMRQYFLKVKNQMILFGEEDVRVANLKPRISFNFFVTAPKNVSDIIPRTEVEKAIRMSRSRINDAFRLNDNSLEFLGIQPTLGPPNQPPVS

[2] = molecular target: T2, Aurora A kinase (Homo sapiens, UniProt O14965); test: Aurora A kinase inhibition assay (HTRF kinase assay / Z′-LYTE Kinase Assay Kit ser/thr 01 peptide); assay type: biochemical; conditions: for inhibition at 32 µM: 32 μM compound, read-out: Aurora A Kinase Percent block at 32 μM; for IC50: ATP 500 μM, Aurora A kinase 2.7–4.7 nM
T2 sequence (O14965 1-403): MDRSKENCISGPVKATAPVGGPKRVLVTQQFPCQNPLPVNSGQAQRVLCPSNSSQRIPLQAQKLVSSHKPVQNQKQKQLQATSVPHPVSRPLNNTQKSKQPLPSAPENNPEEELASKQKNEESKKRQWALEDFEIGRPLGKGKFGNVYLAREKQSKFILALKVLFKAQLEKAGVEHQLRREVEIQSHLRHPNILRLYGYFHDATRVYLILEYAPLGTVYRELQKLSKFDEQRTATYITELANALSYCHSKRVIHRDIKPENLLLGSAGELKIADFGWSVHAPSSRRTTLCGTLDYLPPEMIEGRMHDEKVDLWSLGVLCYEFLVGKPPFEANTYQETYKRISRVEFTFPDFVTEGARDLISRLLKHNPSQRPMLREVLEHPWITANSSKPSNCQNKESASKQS
Experimental: The activities of the synthesized compounds were evaluated using Invitrogen Z′-LYTE® Kinase Assay Kitser/thr 01 peptide. The bioassay was performed using Aurora A kinase at an optimum concentration of 2.7–4.7 nM and ATP at a concentration of 500 μM. Stock solutions of molecules were prepared at 10 mM in DMSO, and then serially diluted in buffer solution to yield final hit concentrations ranging from 0.01 μM to 100 μM. […] The percentage of inhibition and IC50 value were calculated using nonlinear regression of the log (concentration) vs inhibition percentage values using GraphPad Prism 7.04.

Molecule: Hopeaphenol [reference compound]
- Spike RBD/ACE2 Percent block at 32 μM [1]: 83.6 ± 2.0%
- IC50 ([1]; read-out: Spike RBD/ACE2 IC50): 0.3 ± 0.1 µM

Molecule: O=C(CCN1CCOCC1)Nc1ccc2c(c1)/C(=N\Nc1ccc(Cl)cc1Cl)C(=O)N2 [Compound 6h, (E)-N-(3-(2-(2,4-dichlorophenyl)hydrazineylidene)-2-oxoindolin-5-yl)-3-morpholinopropanamide]
- inhibition at 32 µM [1]: 21.3 ± 5.6%
- inhibition at 32 µM [2]: 10.3 ± 7.1%

Molecule: CC(=O)Nc1ccc2c(c1)/C(=N\Nc1ccc(Cl)cc1Cl)C(=O)N2 [Compound 6b, (E)-N-(3-(2-(2,4-dichlorophenyl)hydrazineylidene)-2-oxoindolin-5-yl)acetamide]
- inhibition at 32 µM [1]: 21.5 ± 6.2%
- inhibition at 32 µM [2]: 26.4 ± 0.6%

Molecule: O=C(Cc1ccc(Cl)cc1)Nc1ccc2c(c1)/C(=N\Nc1ccc(C(F)(F)F)cc1)C(=O)N2 [Compound 6f, (E)-2-(4-chlorophenyl)-N-(2-oxo-3-(2-(4(trifluoromethyl)phenyl)hydrazineylidene)indolin-5-yl)acetamide]
- inhibition at 32 µM [1]: 27.1 ± 3.9%
- inhibition at 32 µM [2]: 87.8 ± 2.9%
- IC50 [2]: 1.8 ± 0.2 µM

Molecule: O=C1Nc2ccc(NC(=O)c3ccc(Cl)cc3)cc2/C1=N\Nc1ccc(Cl)cc1Cl [Compound 6k, (E)-4-chloro-N-(3-(2-(2,4-dichlorophenyl)hydrazineylidene)-2-oxoindolin-5-yl)benzamide]
- inhibition at 32 µM [1]: 34.4 ± 20.4%
- inhibition at 32 µM [2]: 13.4 ± 14.6%

Molecule: CC1(C)COC2(OC1)C(=O)Nc1ccc(NC(=O)c3ccc(Cl)cc3)cc12 [Compound 4d, 4-chloro-N-(5’,5’-dimethyl-2-oxospiro[indoline-3,2’-[1,3]dioxan]-5-yl)benzamide]
- inhibition at 32 µM [1]: 22.5 ± 5.7%
- inhibition at 32 µM [2]: 17.8 ± 9.2%

Molecule: CC1(C)COC2(OC1)C(=O)Nc1ccc(NC(=O)Cc3ccc(Cl)cc3)cc12 [Compound 4b, 2-(4-chlorophenyl)-N-(5’,5’-dimethyl-2-oxospiro[indoline-3,2’-[1,3]dioxan]-5-yl)acetamide]
- inhibition at 32 µM [1]: 20.1 ± 11.5%
- inhibition at 32 µM [2]: 20.9 ± 6.3%

Molecule: CCS(=O)(=O)Nc1ccc2c(c1)/C(=C(/Nc1ccc(CN3CCCCC3)cc1)c1ccccc1)C(=O)N2 [Hesperadin, reference compound]
- inhibition at 32 µM [1]: 43.3 ± 10.6%
- inhibition at 32 µM [2]: 93.8 ± 0.8%
- IC50 [2]: 0.0053 ± 0.0027 µM

Molecule: Cc1ccc(N/N=C2/C(=O)Nc3ccc(NC(=O)c4ccc(Cl)cc4)cc32)cc1 [Compound 6j, (E)-4-chloro-N-(2-oxo-3-(2-(p-tolyl)hydrazineylidene)indolin-5-yl)benzamide]
- inhibition at 32 µM [1]: 2.8 ± 4%
- inhibition at 32 µM [2]: 13.2 ± 8.2%

Molecule: Cc1ccc(N/N=C2/C(=O)Nc3ccc(NC(=O)Cc4ccc(Cl)cc4)cc32)cc1 [Compound 6d, (E)-2-(4-chlorophenyl)-N-(2-oxo-3-(2-(p-tolyl)hydrazineylidene)indolin-5-yl)acetamide]
- inhibition at 32 µM [1]: 3.2 ± 0.4%
- inhibition at 32 µM [2]: 54.2 ± 6.7%
- IC50 [2]: 22.8 ± 7.9 µM

Molecule: CC(=O)Nc1ccc2c(c1)C1(OCC(C)(C)CO1)C(=O)N2 [Compound 4a, N-(5’,5’-dimethyl-2-oxospiro[indoline-3,2’-[1,3]dioxan]-5-yl)acetamide]
- inhibition at 32 µM [1]: 0%
- inhibition at 32 µM [2]: 9.1 ± 6.5%

Molecule: CC1(C)COC2(OC1)C(=O)Nc1ccc(NC(=O)CCN3CCOCC3)cc12 [Compound 4c, N-(5’,5’-dimethyl-2-oxospiro[indoline-3,2’-[1,3]dioxan]-5-yl)-3-morpholinopropanamide]
- inhibition at 32 µM [1]: 2 ± 2.9%
- inhibition at 32 µM [2]: 1.6 ± 2.1%

Molecule: CC(=O)Nc1ccc2c(c1)/C(=N\Nc1ccc(C)cc1)C(=O)N2 [Compound 6a, (E)-N-(2-oxo-3-(2-(p-tolyl)hydrazineylidene)indolin-5-yl)acetamide]
- inhibition at 32 µM [1]: 21.5 ± 4.8%
- inhibition at 32 µM [2]: 82.7 ± 2.7%
- IC50 [2]: 0.8 ± 0.1 µM

Molecule: O=C1Nc2ccc(NC(=O)c3ccc(Cl)cc3)cc2/C1=N\Nc1ccncc1 [Compound 6m, (E)-4-chloro-N-(2-oxo-3-(2-(pyridine-4-yl)hydrazineylidene)indolin-5-yl)benzamide]
- inhibition at 32 µM [1]: 0%
- inhibition at 32 µM [2]: 80.2 ± 1.2%
- IC50 [2]: 3.1 ± 1.3 µM

Molecule: O=C(Cc1ccc(Cl)cc1)Nc1ccc2c(c1)/C(=N\Nc1ccc(Cl)cc1Cl)C(=O)N2 [Compound 6e, (E)-2-(4-chlorophenyl)-N-(3-(2-(2,4-dichlorophenyl)hydrazineylidene)-2-oxoindolin-5-yl)acetamide]
- inhibition at 32 µM [1]: 10.4 ± 12.1%
- inhibition at 32 µM [2]: 10 ± 4.9%

Molecule: O=C(CCN1CCOCC1)Nc1ccc2c(c1)/C(=N\Nc1ccc(C(F)(F)F)cc1)C(=O)N2 [Compound 6i, (E)-3-morpholino-N-(2-oxo-3-(2-(4(trifluoromethyl)phenyl)hydrazineylidene)indolin-5-yl)propanamide]
- IC50 ([1]; Spike RBD/ACE2 IC50): 12.1 ± 2.9 µM
- IC50 ([1]; read-out: Spike RBD/ACE2 IC50): < 30 µM and 22.4 µM
- inhibition at 32 µM [1]: 64.5 ± 9%
- inhibition at 32 µM [2]: 79.3 ± 1.5%
- IC50 [2]: 4.8 ± 0.3 µM

Molecule: O=C1Nc2ccc(NC(=O)c3ccc(Cl)cc3)cc2/C1=N\Nc1ccc(C(F)(F)F)cc1 [Compound 6l, (E)-4-chloro-N-(2-oxo-3-(2-(4(trifluoromethyl)phenyl)hydrazineylidene)indolin-5-yl)benzamide]
- inhibition at 32 µM [1]: 44.2 ± 9%
- inhibition at 32 µM [2]: 19.4 ± 13.5%

Molecule: CC(=O)Nc1ccc2c(c1)/C(=N\Nc1ccncc1)C(=O)N2 [Compound 6c, (E)-N-(2-oxo-3-(2-(pyridine-4-yl)hydrazineylidene)indolin-5-yl)acetamide]
- inhibition at 32 µM [1]: 5.2 ± 4.1%
- inhibition at 32 µM [2]: 58.1 ± 1.7%
- IC50 [2]: 5.5 ± 0.5 µM
